Data: publication PMC10847306, “The antibacterial activity and mechanism of a novel peptide MR-22 against multidrug-resistant Escherichia coli” (Frontiers in Cellular and Infection Microbiology, 2024)
Like-named read-outs stand apart in the source and are kept apart here.

Assays:
E. coli ATCC 25922 [1] = assay type: cell-based, Escherichia coli
Protocol: (§1) In order to study the activity of MR-22 in high-salt concentration, mice serum, different temperatures or trypsin, MIC once again conducted tests as described above.
[…] The resulting solutions were subjected to MIC testing to evaluate any alterations in the antimicrobial activity of MR-22.
(§2) To assess the thermal stability of MR-22, it was subjected to various temperatures (40°C, 60°C, 80°C, and 100°C) for 30 min. Then, reducing to room temperature, and the MIC was subsequently determined.
(§3) MR-22 was mixed with a solution containing 1 μg/ml of trypsin and incubated at 37°C for 2 to 12h. Then, trypsin inactivation was carried out at 60°C for 30 min. The antimicrobial activity of the samples was tested to assess the activity of MR-22 and its analogs after the treatment by trypsin. The untreated MR-22 served as the control group for comparative analysis.

E. coli E19 [2] = experiment: Membrane permeability assay (PI, flow cytometry); assay type: cell-based, Escherichia coli; conditions: 1 h, untreated 2.13%
Protocol: (§4) According to the previously described method ([Fadhel Abbas Albaayit et al., 2022]), bacterial suspensions were diluted with PBS to concentration of 1.0×10^6 CFU/mL. […] 10 μM of propidium iodide (PI; Sigma, US) was added to each group and incubated at 37°C for 15 min in the dark. The samples were analyzed using a CytoFLEX flow cytometry (Beckman Coulter, USA), and the positive rate of PI was utilized as an indicator of bacterial membrane permeability.

E. coli ATCC 25922 [3] = experiment: Membrane permeability assay (PI, flow cytometry); assay type: cell-based, Escherichia coli; conditions: 1 h, untreated 0.79%
Protocol: as §4

E. coli E19 [4] = assay type: cell-based, Escherichia coli; conditions: 1 μg/ml trypsin, 37°C, mean ± SD
Protocol: as §3

E. coli ATCC 25922 [5] = assay type: cell-based, Escherichia coli; conditions: 1 μg/ml trypsin, 37°C, mean ± SD
Protocol: as §3

E. coli E19 [6] = experiment: Time-kill assay; assay type: cell-based, Escherichia coli; conditions: 1 × MIC ('1 × MIC and 2 × MIC, respectively' for E19 and ATCC 25922), 1.0×10^6 CFU/mL, 37°C, colony counts
Protocol: (§5) The time-kill kinetics of MR-22 on E. coli were determined following the protocol described by ([Lu et al., 2022]). The bacterial suspensions (1.0×10^6 CFU/mL) were mixed with different concentrations of MR-22, then cultured at 37°C. The final concentrations of MR-22 ranged 1, 2, 4 ×MIC. At 0, 1, 2, 4, 6, 12, and 24 h, 10 μL aliquot samples were diluted in 90 μL PBS and 5 μL aliquot of the dilutions was spread onto LB agar plates. After incubation at 37°C for 24 h, the colony counts were determined and the time-killing curve was plotted.

E. coli ATCC 25922 [7] = experiment: Time-kill assay; assay type: cell-based, Escherichia coli; conditions: 2 × MIC ('1 × MIC and 2 × MIC, respectively' for E19 and ATCC 25922), 1.0×10^6 CFU/mL, 37°C, colony counts
Protocol: as §5

E. coli E19 [8] = assay type: cell-based, Escherichia coli
Protocol: as §1
E. coli ATCC 25922 and E19 were incubated in different concentrations MR-22 in MHB with 150 mM NaCl, 2 mM CaCl2, 10% mice serum and 10% FBS in 96-well plates and cultured at 37°C for 16 h. The resulting solutions were subjected to MIC testing to evaluate any alterations in the antimicrobial activity of MR-22.
as §2, §3

E. coli E19 [9] = experiment: Mice peritonitis model; assay type: in vivo; conditions: C57BL/6J mice
Protocol: This study utilized female C57BL/6J mice aged 6-8 weeks, weight range of 18-20 g, which were obtained from SPF Biotechnology Co., Ltd (Beijing, China). The animals were housed under maintained on a standard 12 h light/12 h dark cycle. All animal experiments were conducted in accordance with the Ethical Principles in Animal Research adopted by Guizhou Medical University and were approved by the Institutional Animal Care and Use Committee.
To evaluate the in vivo efficacy of MR-22, we used a mice peritonitis model. A total of 60 mice were divided into three groups: treatment group (10 mg/kg MR-22, intraperitoneal injection), positive control group (10 mg/kg imipenem, intraperitoneal injection), and normal control group (PBS, intraperitoneal injection). Peritonitis was induced by intraperitoneal injection of 1.0 × 10^8 CFU bacterial inoculum in 0.2 mL of E. coli E19. Survival rates were recorded every 12 h for 7 days.
To study the protective effects of MR-22, 10 mice in each group were sacrificed, and peritoneal lavage fluid, blood, liver, and kidney were collected 36 h after administration. The number of colonies in peritoneal lavage fluid and blood were determined by culturing on LB agar, while the tissues were fixed in 4% paraformaldehyde and subjected to hematoxylin and eosin staining to study the morphology.

E. coli ATCC 25922 [10] = experiment: microbe, parasite or virus in culture; conditions: ATCC 25922, 18 h
Protocol: The MIC were determined by a micro dilution method in Mueller-Hinton broth (MHB) ([Cuenca-Estrella et al., 2010]). The final concentration of bacterial suspension in MHB were 1.0×10^6 CFU/mL. The final concentration of MR-22 ranged 1 ~ 256 μg/mL in 96 wells plate broth at 37°C for 16~18 h. Imipenem was employed as positive control, bacterial grown without treatment as negative control and MHB as blank control. MIC determination was performed by reading the OD600 nm. Take 100 μL samples in holes that have never seen bacterial growth and place them on the LB agar board. The concentration of MR-22 with no bacterial growth was defined as the MBC.

H-MAKRRKKAKKKAKKAKKRRRRR-NH2 [MR-22]
MIC, 150 μM Na^+ (E. coli ATCC 25922 [1]; ATCC 25922, 16 h): 256 µg/mL
MIC, 10% FBS (E. coli ATCC 25922 [1]; ATCC 25922, 16 h): 16 µg/mL
MIC, 10% Serum (E. coli ATCC 25922 [1]; ATCC 25922, 16 h): 64 µg/mL
MIC, 40°C 30 min (E. coli ATCC 25922 [1]; ATCC 25922, 16 h): 16 µg/mL
MIC, 60°C 30 min (E. coli ATCC 25922 [1]; ATCC 25922, 16 h): 16 µg/mL
MIC, 80°C 30 min (E. coli ATCC 25922 [1]; ATCC 25922, 16 h): 16 µg/mL
MIC, 100°C 30 min (E. coli ATCC 25922 [1]; ATCC 25922, 16 h): 16 µg/mL
MIC, Control (E. coli ATCC 25922 [1]; ATCC 25922, 16 h): 16 µg/mL
MIC, 1 μg/mL Trypsin (E. coli ATCC 25922 [1]; E. coli ATCC 25922, MR-22 incubated with 1 μg/ml trypsin at 37°C (2 to 12 h), trypsin inactivated 60°C 30 min): >256 µg/mL
percentage of PI-positive cells (E. coli E19 [2]; 1 × MIC): 7.83%
percentage of PI-positive cells (E. coli E19 [2]; 2 × MIC): 14.35%
percentage of PI-positive cells (E. coli E19 [2]; 4 × MIC): 25.14%
PI fluorescence signals (PI-positive cells) (E. coli ATCC 25922 [3]; 1 × MIC): 9.19%
PI fluorescence signals (PI-positive cells) (E. coli ATCC 25922 [3]; 2 × MIC): 39.10%
PI fluorescence signals (PI-positive cells) (E. coli ATCC 25922 [3]; 4 × MIC): 53.20%
Rate of inhibition after incubation with trypsin (E. coli E19 [4]; 4 h): 17.74 ± 2.88%
Rate of inhibition after incubation with trypsin (E. coli E19 [4]; 8 h): 5.41 ± 1.20%
Rate of inhibition after incubation with trypsin (E. coli E19 [4]; 10 h): 4.49 ± 1.54%
Rate of inhibition after incubation with trypsin (E. coli E19 [4]; 12 h): 0.64 ± 0.46%
Rate of inhibition after incubation with trypsin (E. coli ATCC 25922 [5]; 4 h): 22.32 ± 1.71%
Rate of inhibition after incubation with trypsin (E. coli ATCC 25922 [5]; 8 h): 3.40 ± 0.26%
Rate of inhibition after incubation with trypsin (E. coli ATCC 25922 [5]; 10 h): 1.85 ± 0.18%
Rate of inhibition after incubation with trypsin (E. coli ATCC 25922 [5]; 12 h): 1.33 ± 0.22%
time to eliminate the bacteria (time-kill) (E. coli E19 [6]): ≤ 2 h
time to eliminate the bacteria (time-kill) (E. coli ATCC 25922 [7]): ≤ 2 h
MIC, 150 μM Na^+ (E. coli E19 [8]; E19, 16 h): 256 µg/mL
MIC, 10% FBS (E. coli E19 [8]; E19, 16 h): 32 µg/mL
MIC, 10% Serum (E. coli E19 [8]; E19, 16 h): 128 µg/mL
MIC, 40°C 30 min (E. coli E19 [8]; E19, 16 h): 32 µg/mL
MIC, 60°C 30 min (E. coli E19 [8]; E19, 16 h): 32 µg/mL
MIC, 80°C 30 min (E. coli E19 [8]; E19, 16 h): 32 µg/mL
MIC, 100°C 30 min (E. coli E19 [8]; E19, 16 h): 32 µg/mL
MIC, Control (E. coli E19 [8]; E19, 16 h): 32 µg/mL
MIC, 1 μg/mL Trypsin (E. coli E19 [8]; E. coli E19, MR-22 incubated with 1 μg/ml trypsin at 37°C (2 to 12 h), trypsin inactivated 60°C 30 min): >256 µg/mL
bacterial content in the peritoneal lavage fluid (E. coli E19 [9]; E19 peritonitis, 10 mg/kg 1 h after infection, after 36 h, ten mice per group, control group 8.73 ± 0.38): 7.23 ± 0.36 Log10CFU/mL
72-h survival rate (E. coli E19 [9]; peritonitis by 1.0 × 10^8 CFU E. coli E19 i.p., 10 mg/kg intraperitoneal injection, infected group 0%): 40%
MBC (E. coli ATCC 25922 [10]): 16 µg/mL
MIC (E. coli ATCC 25922 [10]): 16 µg/mL
